Experimental data: patent US8592175B2, “Nitroreductase enzymatic substrates” (bioMérieux, S.A., priority 2009, dated 2013)

Columns and labels:
Assay in all cases: Color, fluorescence and growth of colonies on Columbia medium with nitroreductase substrate
Format in all cases: cell-based
[1] = test system: Streptococcus pyogenes NCTC 8 306; parameters: key to Growth: NG: no growth; 0.5: low growth; 1: moderate growth; 2: good growth; key to Fluo.: fluorescence of the colonies / Col.: color of the colonies: —: no color/fluorescence; conditions: 40 mg substrate in 400 ml Columbia medium, 24 hours at 37° C.; for Col.: color of the colonies: examined visually; for Fluo.: fluorescence of the colonies: UV lamp at 365 nm
Experimental: (§1) 40 mg of each of the substrates were dissolved in 4 ml of dimethylsulfoxide and added to 400 ml of previously autoclaved Columbia medium. The 5 media were distributed in Petri dishes 90 mm in diameter at the rate of 20 ml per dish. Seventeen strains of microorganisms obtained from collections and belonging to various species of bacteria and yeasts are inoculated as spots of about 10 000 colony forming units. The media are incubated for 24 hours at 37° C. and then the colonies formed are examined visually and under a UV lamp at 365 nm.

[2] = test system: Enterococcus faecium NCTC 7 171; parameters: key to Growth: NG: no growth; 0.5: low growth; 1: moderate growth; 2: good growth; key to Fluo.: fluorescence of the colonies / Col.: color of the colonies: —: no color/fluorescence; conditions: 40 mg substrate in 400 ml Columbia medium, 24 hours at 37° C.; for Fluo.: fluorescence of the colonies: UV lamp at 365 nm; for Col.: color of the colonies: examined visually
Experimental: as §1

[3] = test system: Staphylococcus epidermidis NCTC 11 047; parameters: key to Growth: NG: no growth; 0.5: low growth; 1: moderate growth; 2: good growth; key to Fluo.: fluorescence of the colonies / Col.: color of the colonies: —: no color/fluorescence; conditions: 40 mg substrate in 400 ml Columbia medium, 24 hours at 37° C.; for Col.: color of the colonies: examined visually; for Fluo.: fluorescence of the colonies: UV lamp at 365 nm
Experimental: as §1

[4] = test system: Bacillus subtilis NCTC 9 372; parameters: key to Growth: NG: no growth; 0.5: low growth; 1: moderate growth; 2: good growth; key to Fluo.: fluorescence of the colonies / Col.: color of the colonies: —: no color/fluorescence; conditions: 40 mg substrate in 400 ml Columbia medium, 24 hours at 37° C.; for Col.: color of the colonies: examined visually; for Fluo.: fluorescence of the colonies: UV lamp at 365 nm
Experimental: as §1

[5] = test system: Pseudomonas aeruginosa NCTC 10 662; parameters: key to Growth: NG: no growth; 0.5: low growth; 1: moderate growth; 2: good growth; key to Fluo.: fluorescence of the colonies / Col.: color of the colonies: —: no color/fluorescence; conditions: 40 mg substrate in 400 ml Columbia medium, 24 hours at 37° C.; for Col.: color of the colonies: examined visually; for Fluo.: fluorescence of the colonies: UV lamp at 365 nm
Experimental: as §1

[6] = test system: Salmonella typhimurium NCTC 74; parameters: key to Growth: NG: no growth; 0.5: low growth; 1: moderate growth; 2: good growth; key to Fluo.: fluorescence of the colonies / Col.: color of the colonies: —: no color/fluorescence; conditions: 40 mg substrate in 400 ml Columbia medium, 24 hours at 37° C.; for Fluo.: fluorescence of the colonies: UV lamp at 365 nm; for Col.: color of the colonies: examined visually
Experimental: as §1

[7] = test system: Enterococcus faecalis NCTC 775; parameters: key to Growth: NG: no growth; 0.5: low growth; 1: moderate growth; 2: good growth; key to Fluo.: fluorescence of the colonies / Col.: color of the colonies: —: no color/fluorescence; conditions: 40 mg substrate in 400 ml Columbia medium, 24 hours at 37° C.; for Fluo.: fluorescence of the colonies: UV lamp at 365 nm
Experimental: as §1

[8] = test system: Candida albicans ATCC 90 028; parameters: key to Growth: NG: no growth; 0.5: low growth; 1: moderate growth; 2: good growth; key to Fluo.: fluorescence of the colonies / Col.: color of the colonies: —: no color/fluorescence; conditions: 40 mg substrate in 400 ml Columbia medium, 24 hours at 37° C.; for Col.: color of the colonies: examined visually; for Fluo.: fluorescence of the colonies: UV lamp at 365 nm
Experimental: as §1

[9] = test system: Candida glabrata NCPF 3 943; parameters: key to Growth: NG: no growth; 0.5: low growth; 1: moderate growth; 2: good growth; key to Fluo.: fluorescence of the colonies / Col.: color of the colonies: —: no color/fluorescence; conditions: 40 mg substrate in 400 ml Columbia medium, 24 hours at 37° C.; for Col.: color of the colonies: examined visually; for Fluo.: fluorescence of the colonies: UV lamp at 365 nm
Experimental: as §1

[10] = test system: Yersinia enterocolitica NCTC 11 176; parameters: key to Growth: NG: no growth; 0.5: low growth; 1: moderate growth; 2: good growth; key to Fluo.: fluorescence of the colonies / Col.: color of the colonies: —: no color/fluorescence; conditions: 40 mg substrate in 400 ml Columbia medium, 24 hours at 37° C.; for Col.: color of the colonies: examined visually; for Fluo.: fluorescence of the colonies: UV lamp at 365 nm
Experimental: as §1

[11] = test system: Providencia rettgeri NCTC 7 475; parameters: key to Growth: NG: no growth; 0.5: low growth; 1: moderate growth; 2: good growth; key to Fluo.: fluorescence of the colonies / Col.: color of the colonies: —: no color/fluorescence; conditions: 40 mg substrate in 400 ml Columbia medium, 24 hours at 37° C.; for Col.: color of the colonies: examined visually; for Fluo.: fluorescence of the colonies: UV lamp at 365 nm
Experimental: as §1

[12] = test system: Staphylococcus aureus NCTC 6 571; parameters: key to Growth: NG: no growth; 0.5: low growth; 1: moderate growth; 2: good growth; key to Fluo.: fluorescence of the colonies / Col.: color of the colonies: —: no color/fluorescence; conditions: 40 mg substrate in 400 ml Columbia medium, 24 hours at 37° C.; for Col.: color of the colonies: examined visually; for Fluo.: fluorescence of the colonies: UV lamp at 365 nm
Experimental: as §1

[13] = test system: Listeria monocytogenes NCTC 11 994; parameters: key to Growth: NG: no growth; 0.5: low growth; 1: moderate growth; 2: good growth; key to Fluo.: fluorescence of the colonies / Col.: color of the colonies: —: no color/fluorescence; conditions: 40 mg substrate in 400 ml Columbia medium, 24 hours at 37° C.; for Fluo.: fluorescence of the colonies: UV lamp at 365 nm; for Col.: color of the colonies: examined visually
Experimental: as §1

[14] = test system: Staphylococcus aureus NCTC 11 939; parameters: key to Growth: NG: no growth; 0.5: low growth; 1: moderate growth; 2: good growth; key to Fluo.: fluorescence of the colonies / Col.: color of the colonies: —: no color/fluorescence; conditions: 40 mg substrate in 400 ml Columbia medium, 24 hours at 37° C.; for Col.: color of the colonies: examined visually; for Fluo.: fluorescence of the colonies: UV lamp at 365 nm
Experimental: as §1

[15] = test system: Serratia marcescens NCTC 10 211; parameters: key to Growth: NG: no growth; 0.5: low growth; 1: moderate growth; 2: good growth; key to Col.: color of the colonies: —: no color/fluorescence; conditions: 40 mg substrate in 400 ml Columbia medium, 24 hours at 37° C.
Experimental: as §1

[16] = test system: Escherichia coli NCTC 10 418; parameters: key to Growth: NG: no growth; 0.5: low growth; 1: moderate growth; 2: good growth; key to Col.: color of the colonies: —: no color/fluorescence; conditions: 40 mg substrate in 400 ml Columbia medium, 24 hours at 37° C.
Experimental: as §1

[17] = test system: Enterobacter cloacae NCTC 11 936; parameters: key to Growth: NG: no growth; 0.5: low growth; 1: moderate growth; 2: good growth; key to Col.: color of the colonies: —: no color/fluorescence; conditions: 40 mg substrate in 400 ml Columbia medium, 24 hours at 37° C.; for Col.: color of the colonies: examined visually
Experimental: as §1

2-(4′-nitrophenyl)butadienyl-N-methylquinolinium iodide [2NPBMQ^+I]
Growth [1]: 0.5 | Col.: color of the colonies [1]: — | Growth [2]: 1 | Growth [3]: 1 | Col.: color of the colonies [3]: — | Growth [4]: 0.5 | Col.: color of the colonies [4]: — | Growth [5]: 2 | Col.: color of the colonies [5]: Orange | Growth [6]: 1 | Growth [7]: 1 | Growth [8]: NG | Col.: color of the colonies [8]: — | Growth [9]: NG | Col.: color of the colonies [9]: — | Growth [10]: 1 | Growth [11]: 2 | Col.: color of the colonies [11]: Orange | Growth [12]: NG | Col.: color of the colonies [12]: — | Growth [13]: 1 | Growth [14]: NG | Col.: color of the colonies [14]: — | Growth [15]: 2 | Growth [16]: 2 | Growth [17]: 2 | Col.: color of the colonies [17]: Orange

C[n+]1c(C=Cc2ccc([N+](=O)[O-])cc2)ccc2ccccc21.[I-] [2NSMQ^+I, 2-(4′-nitrostyryl)-N-methylquinolinium iodide]
Growth [1]: 0.5 | Growth [2]: 1 | Growth [3]: 0.5 | Col.: color of the colonies [3]: — | Growth [4]: 1 | Growth [5]: 2 | Growth [6]: 2 | Growth [7]: 1 | Growth [8]: 0.5 | Col.: color of the colonies [8]: — | Growth [9]: NG | Col.: color of the colonies [9]: — | Growth [10]: 2 | Col.: color of the colonies [10]: Rust | Growth [11]: 2 | Col.: color of the colonies [11]: Rust | Growth [12]: NG | Col.: color of the colonies [12]: — | Growth [13]: 1 | Growth [14]: NG | Col.: color of the colonies [14]: — | Growth [15]: 2 | Growth [16]: 2 | Growth [17]: 2

O=[N+]([O-])c1ccc(C=Cc2ccc3ccccc3n2)cc1 [2NSQ, 2-(4′-nitrostyryl)quinoline]
Growth [1]: 1 | Fluo.: fluorescence of the colonies [1]: — | Col.: color of the colonies [1]: — | Growth [2]: 1 | Fluo.: fluorescence of the colonies [2]: — | Col.: color of the colonies [2]: — | Growth [3]: 1 | Fluo.: fluorescence of the colonies [3]: — | Col.: color of the colonies [3]: — | Growth [4]: 1 | Fluo.: fluorescence of the colonies [4]: — | Col.: color of the colonies [4]: — | Growth [5]: 2 | Fluo.: fluorescence of the colonies [5]: — | Col.: color of the colonies [5]: — | Growth [6]: 2 | Fluo.: fluorescence of the colonies [6]: — | Col.: color of the colonies [6]: — | Growth [7]: 1 | Fluo.: fluorescence of the colonies [7]: — | Col.: color of the colonies ([7]; examined visually): — | Growth [8]: 0.5 | Fluo.: fluorescence of the colonies [8]: — | Col.: color of the colonies [8]: — | Growth [9]: 1 | Fluo.: fluorescence of the colonies [9]: — | Col.: color of the colonies [9]: — | Growth [10]: 2 | Fluo.: fluorescence of the colonies [10]: — | Col.: color of the colonies [10]: — | Growth [11]: 2 | Fluo.: fluorescence of the colonies [11]: — | Col.: color of the colonies [11]: — | Growth [12]: 1 | Fluo.: fluorescence of the colonies [12]: — | Col.: color of the colonies [12]: — | Growth [13]: 1 | Fluo.: fluorescence of the colonies [13]: — | Col.: color of the colonies [13]: — | Growth [14]: 1 | Fluo.: fluorescence of the colonies [14]: — | Col.: color of the colonies [14]: — | Growth [15]: 2 | Col.: color of the colonies ([15]; examined visually): — | Growth [16]: 2 | Col.: color of the colonies ([16]; examined visually): — | Growth [17]: 2 | Col.: color of the colonies [17]: —

COc1cc([N+](=O)[O-])ccc1C=Cc1cc[n+](C)c2ccccc12.[I-] [4NMSMQ^+I, 4-(4′-nitro-2′-methoxystyryl)-N-methylquinolinium iodide]
Growth [1]: 1 | Fluo.: fluorescence of the colonies [1]: — | Col.: color of the colonies [1]: — | Growth [2]: 0.5 | Fluo.: fluorescence of the colonies [2]: — | Col.: color of the colonies [2]: — | Growth [3]: 2 | Fluo.: fluorescence of the colonies [3]: — | Growth [4]: 2 | Fluo.: fluorescence of the colonies [4]: — | Growth [5]: 1 | Fluo.: fluorescence of the colonies [5]: — | Col.: color of the colonies [5]: — | Growth [6]: 1 | Fluo.: fluorescence of the colonies [6]: — | Col.: color of the colonies [6]: — | Growth [7]: 2 | Fluo.: fluorescence of the colonies [7]: — | Growth [8]: 0.5 | Fluo.: fluorescence of the colonies [8]: — | Col.: color of the colonies [8]: — | Growth [9]: NG | Fluo.: fluorescence of the colonies [9]: — | Col.: color of the colonies [9]: — | Growth [10]: 2 | Fluo.: fluorescence of the colonies [10]: — | Col.: color of the colonies [10]: — | Growth [11]: 0.5 | Fluo.: fluorescence of the colonies [11]: — | Col.: color of the colonies [11]: — | Growth [12]: 2 | Fluo.: fluorescence of the colonies [12]: — | Growth [13]: 2 | Fluo.: fluorescence of the colonies [13]: — | Col.: color of the colonies [13]: — | Growth [14]: 2 | Fluo.: fluorescence of the colonies [14]: — | Growth [15]: 2 | Growth [16]: 2 | Growth [17]: 2
